From article PMC11009625, “Antibiotic class with potent in vivo activity targeting lipopolysaccharide synthesis in Gram-negative bacteria” (Proceedings of the National Academy of Sciences of the …, 2024)
Values after ≈ are worked out from the molar mass of the structure shown. Read-outs that look alike come from different tables or passages of the source.

Columns and labels:
Assay type in all cases: cell-based
E. coli ATCC 25922 = experiment: MIC (CLSI broth microdilution), wild-type E. coli; conditions: ATCC 25922 (Table S4); for MIC: Escherichia coli, ATCC25922, read-out: MIC E. coli EN0001
Method: (§1) Minimum inhibitory concentration (MIC) values were determined according to the Clinical Laboratory Standards Institute guidelines. Frequency of resistance was determined by plating ~5 × 10^8 bacterial cells on agar-solidified media plates containing test compound at concentrations corresponding to four times the measured solid-media MIC of the strains. Colonies were counted after 24 h, restreaked onto media containing the same concentration of compound, and the MIC remeasured against the assayed compound. Genomic DNA from isolated clones was sequenced by paired-end sequencing on an Illumina MiSeq device. Complete experimental details available in SI Appendix. […]
Minimum inhibitory concentration (MIC) determination. Broth microdilution and agar dilution
MIC assays were conducted according to CLSI guidelines (M07-2012). Appropriate inoculation
suspension density was assessed using a Sensititre Nephelometer with a Sensititre 0.5
(§2) McFarland Standard. […]

[1] = tested on: clinical MDR E. coli isolates; experiment: MIC, clinical multi-drug resistant E. coli isolates; conditions: for MIC: Escherichia coli
Method: as §1
(§3) Minimum inhibitory concentration (MIC) determination. Broth microdilution and agar dilution MIC assays were conducted according to CLSI guidelines (M07-2012). Appropriate inoculation suspension density was assessed using a Sensititre Nephelometer with a Sensititre 0.5 […]
as §2
Whole-genome sequencing and data analysis. Genomic DNA of selected clones was prepared using an Epicentre MasterPure Complete DNA Purification Kit. Whole-genome sequencing libraries were prepared using an Illumina Nextera XT Library Preparation Kit. The libraries were sequenced using an Illumina MiSeq device with a V3 600-cycle reagent kit. Whole-genome sequencing data was analyzed using CLC Genomics Workbench Version 11. To determine the genotype of MDR strains from the ENABLE strain collection, de novo assembled contigs were […]

[2] = tested on: clinical MDR K. pneumoniae isolates; experiment: MIC, clinical multi-drug resistant K. pneumoniae isolates; conditions: for MIC: Klebsiella pneumoniae
Method: as §1, §3, §2
To determine the […]
genotype of MDR strains from the ENABLE strain collection, de novo assembled contigs were […]

[3] = read-out: MIC K. pneumoniae EN0140
[4] = read-out: MIC K. pneumoniae EN0142
[5] = read-out: MIC K. pneumoniae EN0143
[6] = read-out: MIC K. pneumoniae EN0144
[7] = read-out: MIC K. pneumoniae EN0145
[8] = read-out: MIC K. pneumoniae EN0233
[9] = read-out: MIC K. pneumoniae EN0245
[10] = read-out: MIC K. pneumoniae EN0504

Compound	MIC (E. coli ATCC 25922)	MIC ([1]; read-out: MIC E. coli EN0134)	MIC ([1]; read-out: MIC E. coli EN0135)	MIC ([1]; read-out: MIC E. coli EN0136)	MIC ([1]; read-out: MIC E. coli EN0137)	MIC ([1]; read-out: MIC E. coli EN0138)	MIC ([1]; read-out: MIC E. coli EN0139)	MIC ([1]; read-out: MIC E. coli EN0303)	MIC ([1]; read-out: MIC E. coli EN0481)	MIC [2, 3]	MIC [2, 4]	MIC [2, 5]	MIC [2, 6]	MIC [2, 7]	MIC [2, 8]	MIC [2, 9]	MIC [2, 10]	further results
CNC(C)C1CCC(N)C(OC2C(N)CC(N)C(OC3OCC(C)(O)C(NC)C3O)C2O)O1 (centres unmarked) [Gentamicin]	1 µg/mL (≈ 2.09 µM)	2 µg/mL (≈ 4.19 µM)	> 64 µg/mL	> 64 µg/mL	> 64 µg/mL	8 µg/mL (≈ 16.8 µM)	2 µg/mL (≈ 4.19 µM)	2 µg/mL (≈ 4.19 µM)	> 64 µg/mL	> 64 µg/mL	64 µg/mL (≈ 134 µM)	0.5 µg/mL (≈ 1.05 µM)	> 64 µg/mL	2 µg/mL (≈ 4.19 µM)	> 64 µg/mL	2 µg/mL (≈ 4.19 µM)	0.5 µg/mL (≈ 1.05 µM)	
C[C@@H](O)[C@H]1C(=O)N2C(C(=O)O)=C(S[C@@H]3CN[C@H](C(=O)N(C)C)C3)[C@H](C)[C@H]12 [Meropenem]	≤ 0.125 µg/mL	≤ 0.125 µg/mL	≤ 0.125 µg/mL	≤ 0.125 µg/mL	≤ 0.125 µg/mL	≤ 0.125 µg/mL	≤ 0.125 µg/mL	≤ 0.125 µg/mL	≤ 0.125 µg/mL	2 µg/mL (≈ 5.22 µM)	0.5 µg/mL (≈ 1.3 µM)	≤ 0.125 µg/mL	64 µg/mL (≈ 167 µM)	8 µg/mL (≈ 20.9 µM)	2 µg/mL (≈ 5.22 µM)	2 µg/mL (≈ 5.22 µM)	4 µg/mL (≈ 10.4 µM)	
CO/N=C(\C(=O)N[C@@H]1C(=O)N2C(C(=O)O)=C(COC(C)=O)CS[C@H]12)c1csc(N)n1 [Cefotaxime]	0.5 µg/mL (≈ 1.1 µM)	8 µg/mL (≈ 17.6 µM)	2 µg/mL (≈ 4.39 µM)	4 µg/mL (≈ 8.78 µM)	> 64 µg/mL	> 64 µg/mL	> 64 µg/mL	> 64 µg/mL	> 64 µg/mL	> 64 µg/mL	> 64 µg/mL	16 µg/mL (≈ 35.1 µM)	> 64 µg/mL	> 64 µg/mL	> 64 µg/mL	64 µg/mL (≈ 141 µM)	> 64 µg/mL	
Colistin																		MIC E. coli EN0001 (E. coli ATCC 25922): 2 µg/mL; MIC E. coli EN0135 ([1]; MDR (aac(3)-IIa, blaTEM-1B, blaSHV-12 ...)): 2 µg/mL; MIC E. coli EN0134 ([1]; MDR (blaCMY-4, blaTEM-1B ...)): 2 µg/mL; MIC E. coli EN0138 ([1]; MDR (blaCTX-M-14b, blaTEM-1C ...)): 2 µg/mL; MIC E. coli EN0139 ([1]; MDR (blaOXA-1, blaCTX-M-15 ...)): 2 µg/mL; MIC E. coli EN0137 ([1]; MDR (blaOXA-1, blaTEM-1B, blaCTX-M-15 ...)): 2 µg/mL; MIC E. coli EN0136 ([1]; MDR (blaOXA-2, blaTEM-1B, blaCTX-M-2 ...)): 1 µg/mL; MIC E. coli EN0481 ([1]; colistinR (mcr-1), MDR (rmtB ...)): 8 µg/mL; MIC E. coli EN0303 ([1]; colistinR (pmrB T156M), MDR): 8 µg/mL; MIC K. pneumoniae EN0144 ([2]; MBL (blaVIM-26), MDR): 2 µg/mL; MIC K. pneumoniae EN0145 ([2]; MDR (blaCTX-M-15 ...)): 2 µg/mL; MIC K. pneumoniae EN0140 ([2]; MDR (blaDHA-1 ...), OmpK36 loss): 2 µg/mL; MIC K. pneumoniae EN0143 ([2]; MDR (blaOXA-2, blaSHV-12 ...)): 2 µg/mL; MIC K. pneumoniae EN0142 ([2]; carbapenemR (blaKPC-2), MDR): 2 µg/mL; MIC K. pneumoniae EN0233 ([2]; carbapenemR (blaOXA-48), MDR, OmpK36 loss): 32 µg/mL; MIC K. pneumoniae EN0245 ([2]; colistinR (mgrB::IS10), MDR): 64 µg/mL; MIC K. pneumoniae EN0504 ([2]; colistinR, MDR): 64 µg/mL
